From paper PMC5053523, “In Vitro Antibacterial Activity of Rhodanine Derivatives against Pathogenic Clinical Isolates” (PLoS ONE, 2016)
Converted amounts (≈) assume the structure as drawn. Like-named read-outs stand apart in the source and are kept apart here.

Key:
Assay type in all cases: cell-based
Klebsiella pneumoniae = assay: MIC with/without sub-MIC colistin, Klebsiella pneumoniae
Method: (§1) The MIC of the rhodanines and control antibiotics, in the presence of a sub-inhibitory concentration of colistin or polymixin B nonapeptide (PMBN), against Gram-negative bacteria was evaluated as described before. The antibacterial activity of the rhodanines was further investigated against E. coli SM1411Δ acrAB, a strain that is deficient in the multidrug-resistant AcrAB efflux pump, as described before.

Acinetobacter baumannii [1] = assay: MIC with/without sub-MIC colistin, Acinetobacter baumannii
Method: as §1

Escherichia coli Δ acrAB = assay: MIC against E. coli 1411 and AcrAB efflux pump deficient E. coli SM1411Δ acrAB
Method: as §1

Mycobacterium smegmatis = assay: Broth microdilution MIC/MBC, Mycobacterium smegmatis; conditions: Mycolicibacterium smegmatis, ATCC14468, M. Smegmatis ATCC 14468
[2] = system: methicillin-resistant Staphylococcus aureus (MRSA); assay: Broth microdilution MIC/MBC, MRSA
B. cereus = assay: Broth microdilution MIC/MBC, B. cereus; conditions: Bacillus cereus; for MBC: read-out: MBC; for MIC: read-out: MIC
Description: The broth microdilution technique was used, followed by subculturing on agar plates that were rhodanine—free.

[3] = system: Vancomycin Resistant Staphylococcus aureus (VRSA); assay: Broth microdilution MIC/MBC, VRSA; conditions: for MBC / MIC: VRSA
Acinetobacter baumannii [4] = assay: Broth microdilution MIC, Acinetobacter baumannii
[5] = system: vancomycin resistant enterococci (VRE) E. faecalis; assay: Broth microdilution MIC/MBC, VRE E. faecalis; conditions: for MIC: read-out: MIC
[6] = system: vancomycin resistant enterococci (VRE) E. faecium; assay: Broth microdilution MIC/MBC, VRE E. faecium; conditions: for MIC: read-out: MIC
[7] = NRS201, B. cereus NRS 201 NR-2488
[8] = E. faecalis NR31972 Strain SF 28073
[9] = E. faecium HM 968 Strain ERV102
[10] = E. faecium NR31914 Strain E0120
[11] = E. faecium Patient #1–1 NR-31903

Question: Which results are given for O=C(O)[C@H](Cc1ccccc1)N1C(=O)/C(=C/c2cccc(Oc3ccc(Cl)c(Cl)c3)c2)SC1=S [Rh 1]?
Answer: MIC (Klebsiella pneumoniae; Klebsiella pneumoniae ATCC BAA 2146, colistin (+) […]): >64 µM; MIC (Klebsiella pneumoniae; Klebsiella pneumoniae, BAA2146): > 128 µM; MIC (Acinetobacter baumannii [1]; Acinetobacter baumannii ATCC BAA747, colistin (+) […], read-out: MIC): >64 µM; MIC (Acinetobacter baumannii [1]; Acinetobacter baumannii ATCC BAA19606, colistin (+) […], read-out: MIC): >64 µM; MIC (Acinetobacter baumannii [1]; Acinetobacter baumannii, ATCCBAA747): > 128 µM; MIC (Acinetobacter baumannii [1]; Acinetobacter baumannii, ATCCBAA19606): > 128 µM; MIC (Escherichia coli Δ acrAB; E.coli 1411): > 64 µM; MIC (Escherichia coli Δ acrAB; E.coli 1411 SM (Δ acrAB, AcrAB efflux pump deficient)): > 64 µM; MBC (Mycobacterium smegmatis; read-out: MBC): 8 µM (≈ 4.24 µg/mL); MIC (Mycobacterium smegmatis; read-out: MIC): 4 µM (≈ 2.12 µg/mL); MIC50 ([2]; 11 MRSA strains): 8 µM (≈ 4.24 µg/mL); MIC90 ([2]; 11 MRSA strains): 8 µM (≈ 4.24 µg/mL); MBC ([2]; MRSA NRS 1): 8 µM (≈ 4.24 µg/mL); MIC ([2]; MRSA NRS 1): 8 µM (≈ 4.24 µg/mL); MBC ([2]; MRSA NRS 19): 8 µM (≈ 4.24 µg/mL); MIC ([2]; MRSA NRS 19): 8 µM (≈ 4.24 µg/mL); MBC ([2]; MRSA NRS 37): 8 µM (≈ 4.24 µg/mL); MIC ([2]; MRSA NRS 37): 8 µM (≈ 4.24 µg/mL); MBC ([2]; MRSA NRS 107): 8 µM (≈ 4.24 µg/mL); MIC ([2]; MRSA NRS 107): 8 µM (≈ 4.24 µg/mL); MBC ([2]; MRSA NRS 119): 8 µM (≈ 4.24 µg/mL); MIC ([2]; MRSA NRS 119): 8 µM (≈ 4.24 µg/mL); MBC ([2]; MRSA NRS 382): 8 µM (≈ 4.24 µg/mL); MIC ([2]; MRSA NRS 382): 8 µM (≈ 4.24 µg/mL); MBC ([2]; MRSA NRS 383): 8 µM (≈ 4.24 µg/mL); MIC ([2]; MRSA NRS 383): 8 µM (≈ 4.24 µg/mL); MBC ([2]; MRSA NRS 384): 32 µM (≈ 17 µg/mL); MIC ([2]; MRSA NRS 384): 8 µM (≈ 4.24 µg/mL); MBC ([2]; MRSA NRS 385): 8 µM (≈ 4.24 µg/mL); MIC ([2]; MRSA NRS 385): 8 µM (≈ 4.24 µg/mL); MBC ([2]; MRSA NRS 386): 16 µM (≈ 8.49 µg/mL); MIC ([2]; MRSA NRS 386): 8 µM (≈ 4.24 µg/mL); MBC ([2]; MRSA NRS 387): 8 µM (≈ 4.24 µg/mL); MIC ([2]; MRSA NRS 387): 8 µM (≈ 4.24 µg/mL); MBC (B. cereus; B. cereus BAG1O-2 NR-28582): 4 µM (≈ 2.12 µg/mL); MIC (B. cereus; B. cereus BAG1O-2 NR-28582): 4 µM (≈ 2.12 µg/mL); MBC (B. cereus; B. cereus BAG1X1-1 NR-28575): 2 µM (≈ 1.06 µg/mL); MIC (B. cereus; B. cereus BAG1X1-1 NR-28575): 2 µM (≈ 1.06 µg/mL); MBC (B. cereus; B. cereus BAG1X2-1 NR-28578): 4 µM (≈ 2.12 µg/mL); MIC (B. cereus; B. cereus BAG1X2-1 NR-28578): 4 µM (≈ 2.12 µg/mL); MBC (B. cereus; B. cereus G9241 NR-9564): 4 µM (≈ 2.12 µg/mL); MIC (B. cereus; B. cereus G9241 NR-9564): 4 µM (≈ 2.12 µg/mL); MBC (B. cereus; B. cereus VD014 NR-22141): 4 µM (≈ 2.12 µg/mL); MIC (B. cereus; B. cereus VD014 NR-22141): 4 µM (≈ 2.12 µg/mL); MBC (B. cereus; B. cereus VD115 NR-22148): 4 µM (≈ 2.12 µg/mL); MIC (B. cereus; B. cereus VD115 NR-22148): 4 µM (≈ 2.12 µg/mL); MBC (B. cereus; B. cereus VD148 NR-22150): 4 µM (≈ 2.12 µg/mL); MIC (B. cereus; B. cereus VD148 NR-22150): 4 µM (≈ 2.12 µg/mL); MBC (B. cereus; [7]): 4 µM (≈ 2.12 µg/mL); MIC (B. cereus; [7]): 4 µM (≈ 2.12 µg/mL); MIC50 ([3]; 15 VRSA strains, read-out: MIC 50): 8 µM (≈ 4.24 µg/mL); MIC90 ([3]; 15 VRSA strains, read-out: MIC 90): 8 µM (≈ 4.24 µg/mL); MBC ([3]; VRSA 1, read-out: MBC): 8 µM (≈ 4.24 µg/mL); MIC ([3]; VRSA 1, read-out: MIC): 8 µM (≈ 4.24 µg/mL); MBC ([3]; VRSA 2, read-out: MBC): 8 µM (≈ 4.24 µg/mL); MIC ([3]; VRSA 2, read-out: MIC): 8 µM (≈ 4.24 µg/mL); MBC ([3]; VRSA 3a, read-out: MBC): 16 µM (≈ 8.49 µg/mL); MIC ([3]; VRSA 3a, read-out: MIC): 8 µM (≈ 4.24 µg/mL); MBC ([3]; VRSA 3b, read-out: MBC): 8 µM (≈ 4.24 µg/mL); MIC ([3]; VRSA 3b, read-out: MIC): 8 µM (≈ 4.24 µg/mL); MBC ([3]; VRSA 4, read-out: MBC): 8 µM (≈ 4.24 µg/mL); MIC ([3]; VRSA 4, read-out: MIC): 8 µM (≈ 4.24 µg/mL); MBC ([3]; VRSA 5, read-out: MBC): 16 µM (≈ 8.49 µg/mL); MIC ([3]; VRSA 5, read-out: MIC): 8 µM (≈ 4.24 µg/mL); MBC ([3]; VRSA 6, read-out: MBC): 8 µM (≈ 4.24 µg/mL); MIC ([3]; VRSA 6, read-out: MIC): 4 µM (≈ 2.12 µg/mL); MBC ([3]; VRSA 7, read-out: MBC): 8 µM (≈ 4.24 µg/mL); MIC ([3]; VRSA 7, read-out: MIC): 8 µM (≈ 4.24 µg/mL); MBC ([3]; VRSA 8, read-out: MBC): 32 µM (≈ 17 µg/mL); MIC ([3]; VRSA 8, read-out: MIC): 4 µM (≈ 2.12 µg/mL); MBC ([3]; VRSA 9, read-out: MBC): 32 µM (≈ 17 µg/mL); MIC ([3]; VRSA 9, read-out: MIC): 8 µM (≈ 4.24 µg/mL); MBC ([3]; VRSA 10, read-out: MBC): 32 µM (≈ 17 µg/mL); MIC ([3]; VRSA 10, read-out: MIC): 8 µM (≈ 4.24 µg/mL); MBC ([3]; VRSA 11a, read-out: MBC): 16 µM (≈ 8.49 µg/mL); MIC ([3]; VRSA 11a, read-out: MIC): 8 µM (≈ 4.24 µg/mL); MBC ([3]; VRSA 11b, read-out: MBC): 32 µM (≈ 17 µg/mL); MIC ([3]; VRSA 11b, read-out: MIC): 8 µM (≈ 4.24 µg/mL); MBC ([3]; VRSA 12, read-out: MBC): 32 µM (≈ 17 µg/mL); MIC ([3]; VRSA 12, read-out: MIC): 8 µM (≈ 4.24 µg/mL); MBC ([3]; VRSA 13, read-out: MBC): 32 µM (≈ 17 µg/mL); MIC ([3]; VRSA 13, read-out: MIC): 8 µM (≈ 4.24 µg/mL); MIC (Acinetobacter baumannii [4]; ATCC13345): > 128 µM; MIC (Acinetobacter baumannii [4]; ATCC17786): > 128 µM; MBC ([5]; E. faecalis ERV103 HM-934): 8 µM (≈ 4.24 µg/mL); MIC ([5]; E. faecalis ERV103 HM-934): 8 µM (≈ 4.24 µg/mL); MBC [5, 8]: 32 µM (≈ 17 µg/mL); MIC [5, 8]: 8 µM (≈ 4.24 µg/mL); MBC ([5]; E. faecalis R712 HM-335): 8 µM (≈ 4.24 µg/mL); MIC ([5]; E. faecalis R712 HM-335): 4 µM (≈ 2.12 µg/mL); MBC ([5]; E. faecalis S613 HM-334): 8 µM (≈ 4.24 µg/mL); MIC ([5]; E. faecalis S613 HM-334): 8 µM (≈ 4.24 µg/mL); MBC ([5]; E. faecalis TX0104 HM-201): 8 µM (≈ 4.24 µg/mL); MIC ([5]; E. faecalis TX0104 HM-201): 8 µM (≈ 4.24 µg/mL); MBC ([6]; E. faecium E417 HM-965): > 64 µM; MIC ([6]; E. faecium E417 HM-965): 8 µM (≈ 4.24 µg/mL); MBC ([6]; E. faecium E1071 NR-28978): 64 µM (≈ 33.9 µg/mL); MIC ([6]; E. faecium E1071 NR-28978): 8 µM (≈ 4.24 µg/mL); MBC [6, 9]: 32 µM (≈ 17 µg/mL); MIC [6, 9]: 8 µM (≈ 4.24 µg/mL); MBC [6, 10]: 64 µM (≈ 33.9 µg/mL); MIC [6, 10]: 8 µM (≈ 4.24 µg/mL); MBC [6, 11]: 16 µM (≈ 8.49 µg/mL); MIC [6, 11]: 4 µM (≈ 2.12 µg/mL)
